Measured values taken from the supplement of paper PMC13380429.

What was measured:
[1] = system: A549-ACE2 infected with SARS-CoV-2; experiment: cell count relative to DMSO; higher = less toxic; details: 24 h
Caco-2 [2] = experiment: relative viability EC50 (midpoint between 100% and the lowest measured viability); higher = less toxic; details: 72 h
U2OS [3] = experiment: as above; details: 72 h
HepG2 [4] = experiment: as above; details: 72 h
A549-ACE2 [5] = experiment: drug-induced phospholipidosis relative to tamoxifen; higher = more phospholipidosis
Caco-2 [6] = experiment: drug sensitivity score (DSS) for viability; higher = more toxic; extreme values may be limits of the assay; details: 72 h
Vero E6 [7] = experiment: as above; details: 72 h
U2OS [8] = experiment: as above; details: 72 h
HepG2 [9] = experiment: as above; details: 72 h
[10] = system: A549-ACE2 infected with SARS-CoV-2; experiment: morphology score (similarity to uninfected cells); higher = more like uninfected cells; details: 24 h
[11] = system: A549-ACE2 infected with SARS-CoV-2; experiment: SARS-CoV-2 infection rate relative to DMSO; higher = more infection; details: 24 h
A549-ACE2 [12] = experiment: phospholipidosis EC50; higher = less potent phospholipidosis inducer
Caco-2 [13] = experiment: cell viability relative to DMSO; higher = less toxic; details: 72 h
Vero E6 [14] = experiment: as above; details: 72 h
U2OS [15] = experiment: as above; details: 72 h
HepG2 [16] = experiment: as above; details: 72 h
Vero E6 [17] = experiment: relative viability EC50 (midpoint between 100% and the lowest measured viability); higher = less toxic; details: 72 h
Calu-3 [18] = experiment: as above; details: 72 h
Calu-3 [19] = experiment: drug sensitivity score (DSS) for viability; higher = more toxic; extreme values may be limits of the assay; details: 72 h
Calu-3 [20] = experiment: cell viability relative to DMSO; higher = less toxic; details: 72 h

N=C(NCCCCCCNC(=N)NC(=N)Nc1ccc(Cl)cc1)NC(=N)Nc1ccc(Cl)cc1 [chlorhexidine]
Details	SARS-CoV-2 infection rate [%]	cell count [%]	cell viability [%]	morphology score	phospholipidosis EC50 [µM]
A549-ACE2 [12], 24 h	–	–	–	–	9.72
A549-ACE2 [12], 48 h	–	–	–	–	7.36
Caco-2 [13], 1 nM	–	–	99.3	–	–
Caco-2 [13], 10 nM	–	–	90	–	–
Caco-2 [13], 100 nM	–	–	98.1	–	–
Caco-2 [13], 1000 nM	–	–	100	–	–
Caco-2 [13], 10000 nM	–	–	16.4	–	–
HepG2 [16], 1 nM	–	–	101	–	–
HepG2 [16], 10 nM	–	–	103	–	–
HepG2 [16], 100 nM	–	–	87	–	–
HepG2 [16], 1000 nM	–	–	90.9	–	–
HepG2 [16], 10000 nM	–	–	10.1	–	–
U2OS [15], 1 nM	–	–	99.9	–	–
U2OS [15], 10 nM	–	–	101	–	–
U2OS [15], 100 nM	–	–	95.9	–	–
U2OS [15], 1000 nM	–	–	100	–	–
U2OS [15], 10000 nM	–	–	32.2	–	–
Vero E6 [14], 1 nM	–	–	96.5	–	–
Vero E6 [14], 10 nM	–	–	99	–	–
Vero E6 [14], 100 nM	–	–	97.9	–	–
Vero E6 [14], 1000 nM	–	–	95.2	–	–
Vero E6 [14], 10000 nM	–	–	56.1	–	–
[1], 0.1 µM	–	103	–	–	–
[1], 0.3 µM	–	99	–	–	–
[1], 1 µM	–	107	–	–	–
[1], 3 µM	–	106	–	–	–
[10], 0.1 µM	–	–	–	-0.01	–
[10], 0.3 µM	–	–	–	0.17	–
[10], 1 µM	–	–	–	0.17	–
[10], 3 µM	–	–	–	-0.05	–
[11], 0.1 µM	95	–	–	–	–
[11], 0.3 µM	90	–	–	–	–
[11], 1 µM	91	–	–	–	–
[11], 3 µM	93	–	–	–	–

Details	drug sensitivity score	relative viability EC50 [µM]
Caco-2 [2]	–	3.19
Caco-2 [6]	4.6	–
HepG2 [4]	–	2.32
HepG2 [9]	6.5	–
U2OS [3]	–	3.19
U2OS [8]	3.7	–
Vero E6 [7]	3	–

drug-induced phospholipidosis [%], A549-ACE2 [5]
Details	0.3 µM	0.833333 µM	3.33333 µM	6.66667 µM	10 µM	30 µM
24 h	-0.01	-1.75	7.04	31.6	58.6	105
48 h	3.12	2.84	15.7	40.3	57.2	–
72 h	3.95	2.67	18.9	39.3	61.2	–

CN(NC(=O)CC(=O)NN(C)C(=S)c1ccccc1)C(=S)c1ccccc1 [elesclomol]
Details	SARS-CoV-2 infection rate, [11] [%]	cell count, [1] [%]	cell viability, Caco-2 [13] [%]	cell viability, Calu-3 [20] [%]	cell viability, HepG2 [16] [%]	cell viability, U2OS [15] [%]	cell viability, Vero E6 [14] [%]	morphology score, [10]
1 nM	–	–	93.9	107	93.4	89.6	91.5	–
10 nM	–	–	74.4	83.6	99.4	89.5	96.7	–
100 nM	–	–	7	68.7	69.2	56.9	69.1	–
0.3 µM	93	93	–	–	–	–	–	0.17
1000 nM	–	–	9.7	29.6	66.7	7.8	41.7	–
3 µM	68	104	–	–	–	–	–	0.63
10 µM	99	107	–	–	–	–	–	0.52
10000 nM	–	–	4.1	99.4	82.1	90.6	86	–
30 µM	86	100	–	–	–	–	–	0.39

Details	drug sensitivity score	relative viability EC50 [µM]
Caco-2 [2]	–	0.0174
Caco-2 [6]	32.2	–
Calu-3 [18]	–	> 10
Calu-3 [19]	0	–
HepG2 [9]	9.7	–
U2OS [3]	–	0.1
U2OS [8]	21.4	–
Vero E6 [7]	8.7	–
Vero E6 [17]	–	0.637

A549-ACE2 [5]
Details	drug-induced phospholipidosis [%]
0.3 µM, 24 h	12.3
0.833333 µM, 24 h	9.68
3.33333 µM, 24 h	7.09
6.66667 µM, 24 h	7.28
10 µM, 24 h	9.51
30 µM, 24 h	2.54
30 µM, 48 h	6.18
30 µM, 72 h	10
